Literature values as cited in patent US20200188326A1, “COMPOSITIONS AND METHODS OF TREATMENT FOR MVID AND RELATED DISEASES” (Vanessa Research, Inc., priority 2015, published 2020).

Test system: SLC26A3 exchanger
Details: in the intestine

Vitamin A
upregulation of the expression of SLC26A3 exchanger: up to 4 fold
